Assays:
[1] = Fluorescence emission maximum of the dyes; type: physicochemical
[2] = Absorbance of the dyes (absorption maximum, extinction coefficient); type: physicochemical

SMILES: CCOC(=O)C1(C(=O)O)CC(/C=C/C2=[N+](CCCS(=O)(=O)[O-])c3ccc(S(=O)(=O)O)cc3C2(C)C)=CC(=C/C=C2/N(CCCS(=O)(=O)O)c3ccc(S(=O)(=O)O)cc3C2(C)C)/C1 (stereo not drawn) [Compound 1b]
- Em ([1]; 1x PBS): 771 nm
- % absorption of the dye at 278 nm with respect to its abs. at λmax, 750 nm [2]: 4%
- Abs ([2]; 1x PBS): 749 nm
- ε (extinction coefficient of the dye) ([2]; 1x PBS, in M-1 cm-1 (unit assumed)): 240,000

SMILES: CC1(C)C(/C=C/C2=CC(=C/C=C3/N(CCCS(=O)(=O)O)c4ccc(S(=O)(=O)O)cc4C3(C)C)/CC(C(=O)NCCCCCC(=O)O)(C(=O)NCCS(=O)(=O)O)C2)=[N+](CCCS(=O)(=O)[O-])c2ccc(S(=O)(=O)O)cc21 (stereo not drawn) [Compound 1f]
- Em. Max ([1]; in water/1× PBS): 771 nm
- Abs. max ([2]; in water/1× PBS): 751 nm

SMILES: CCN1/C(=C/C=C2C=C(/C=C/C3=[N+](CC)c4ccc5c(S(=O)(=O)[O-])cc(S(=O)(=O)O)cc5c4C3(C)C)CC(C(=O)NCCCCCC(=O)O)(C(=O)NCCS(=O)(=O)O)C/2)C(C)(C)c2c1ccc1c(S(=O)(=O)O)cc(S(=O)(=O)O)cc21 (stereo not drawn) [Compound 4m]
- Em. Max ([1]; water): 795 nm
- Abs. max ([2]; MeOH): 780 nm
- Abs. max ([2]; in water): 775 nm

SMILES: CC1(C)C(/C=C/C2=CC(=C/C=C3/N(CCCS(=O)(=O)O)c4ccc(S(=O)(=O)O)cc4C3(C)C)/CC(C(=O)O)(C(=O)NCCS(=O)(=O)O)C2)=[N+](CCCS(=O)(=O)[O-])c2ccc(S(=O)(=O)O)cc21 (stereo not drawn) [Compound 1d]
- Em. Max ([1]; in water/1× PBS): 771 nm
- Abs. max ([2]; in water/1× PBS): 751 nm

SMILES: CCOC(=O)C1(C(=O)NCCS(=O)(=O)O)CC(/C=C/C2=[N+](CCCS(=O)(=O)[O-])c3ccc(S(=O)(=O)O)cc3C2(C)C)=CC(=C/C=C2/N(CCCS(=O)(=O)O)c3ccc(S(=O)(=O)O)cc3C2(C)C)/C1 (stereo not drawn) [Compound 1c]
- Abs. max ([2]; in water): 749 nm

Source: US11193932B2, “4,4-disubstituted cyclohexyl bridged heptamethine cyanine dyes and uses thereof” (VisEn Medical, Inc., priority 2013, dated 2021)
